In brackets after ≈: the same amount, converted by molar mass.
What was measured:
[1] = test system: S. aureus; test: Growth inhibition curves / MICs in S. aureus cultures (strain not named or summary over strains); assay type: cell-based, Staphylococcus aureus; details: for bacterial growth inhibition: S. aureus cultures, optical density (OD) over 18 h, FIG. 1b
Description: (§1) Antimicrobial susceptibility testing. Minimal inhibitory concentrations (MIC) of all nucleoside analogues and TOUCANs against each bacteria strain were determined using broth microdilution method. A single colony obtained from overnight culture on tryptone soy agar with 5% defibrinated sheep blood was inoculated in cation-adjusted Mueller Hinton Broth and adjusted to 10^6 CFU/mL. TOUCANs were prepared in PBS+/+ (treatment) and serial dilutions were made in 96-well polystyrene round bottom microwell plates with 50 μL final volume for each concentration. PBS+/+ was used as untreated control. Next, 50 μL bacteria solutions were added to each well to a final bacteria concentration of 5×10^5 CFU/mL. Plates were incubated at 37° C. in Cytation 1 Cell Imaging Multimode Reader. Growth curves were obtained by measuring optical densities at 600 nm every 10 minutes for 18 hours using Cytation 1 Cell Imaging Multimode Reader. In addition, visual inspection of the plates was carried out after 18 hours and photographs were taken. MICs were defined as the lowest drug concentration in the microwell at which bacterial growth was not visible at the end of the incubation period. Besides MIC determination, specificity of TOUCAN 7mGe was also shown with subcultures on chromogenic media. For this purpose, 5 μL of different concentrations of each strain were inoculated onto CHROM agar Orientation Media (Becton Dickinson) and the bacterial growth of each bacteria strain tested was observed by naked eye after incubation at 37° C. for 24 hours. Finally, photographs of the chromogenic media were taken.

[2] = test system: Breast cancer cells (MDAMB231); test: Anti-cancer drug susceptibility testing for TOUCAN 7mDx, breast cancer cells, 96 h; assay type: cell-based; details: FIG. 15
Description: Anti-cancer drug susceptibility testing for TOUCAN 7mDx. Doxorubicin and equivalent 7mDx solutions were prepared as explained before. Then, 7mDx was pre-exposed to 5 μl of 10 U MN for 1 hour at 37° C. (7mDx+MN). 100 μl of all drugs (Doxorubicin, 7mDx, and 7mDx+MN) were added to the related wells and serially diluted using PBS+/+making the final concentrations between 20-0.3 μg/μl. Breast cancer cells (MDAMB231) were prepared as 20.000 cells/ml and 100 μl cell suspensions were added to each well. The plate was incubated at 37° C. for 96 hours. At 48th hour of incubation, 100 μl CyQUANT® Direct Cell Proliferation Assay kit was added to each well. Cell counts and images were taken at the end of 96 hours incubation period using Cytation 1 Cell Imaging Multi-Mode Reader.

[3] = test system: S. aureus ATCC 29213 (MSSA); test: Broth microdilution MIC and growth inhibition; assay type: cell-based, Staphylococcus aureus; details: Table 1, S. aureus ATCC 29213
Text: (§2) Bacteria strains. S. aureus NCTC 12493 (MRSA), S. aureus ATCC 29213 (MSSA), S. aureus ATCC 43300 (MRSA), S. aureus ATCC 1707 (MRSA), S. aureus ATCC 1717 (MRSA), S. aureus ATCC 1747 (MRSA), S. aureus ATCC 1761 (MRSA), S. aureus ATCC 1766 (MRSA), S. aureus ATCC 1768 (MRSA), S. epidermidis ATCC 35984, E. coli ATCC 25922, K. pneumoniae ATCC 13883, P. mirabilis ATCC 25933, S. enterica ATCC 14028 and P. aeruginosa ATCC 10145 strains were used in this study. Bacteria were initially inoculated onto tryptone soy agar with 5% defibrinated sheep blood (Thermo Fisher Scientific, Inc., Waltham, MA, USA) and incubated at 37° C. for 24 hours. Then, single colonies of each strain were transferred to tryptone soy broth (Thermo Fisher Scientific) for the nuclease activity assay or antimicrobial susceptibility testing, respectively.
as §1

[4] = test system: S. aureus NCTC 12493 (MRSA); test: Broth microdilution MIC and growth inhibition; assay type: cell-based, Staphylococcus aureus; details: Table 1, S. aureus NCTC 12493
Text: as §2, §1

[5] = Staphylococcus aureus, read-out: MIC

mU-mU-mU-mU-Ge-T-T-mU-mU-mU-mU (UUUUGTTUUUU; chemistry not given here) [GeTT, TOUCAN with Gemcitabine upstream of TT]
bacterial growth inhibition [1]: low growth inhibition efficiency

T-T-Ge-mU-mU-mU-mU [SDR probe]
inhibition of bacterial growth (therapeutic efficacy) ([1]; combinations of the R-S-D moieties, FIG. 1c): 30%

mU-mU-mU-mU-T-T-Dx [TOUCAN 7mDx]
effect on viability of breast cancer cells ([2]; 7mDx alone (no nuclease)): did not show a significant effect on viability
therapeutic efficacy in breast cancer cells (viability) ([2]; 7mDx spiked with MN): remarkable therapeutic efficacy

mU-mU-mU-mU-T-T-Ge-mU-mU-mU-mU (UUUUTTGUUUU; chemistry not given here) [TTGe, TOUCAN with Gemcitabine downstream of TT]
bacterial growth inhibition [1]: around 20%

Nc1ncnc2c1ncn2[C@@H]1O[C@H](CO)[C@@H](O)[C@@H]1O [Vidarabine]
MIC [3, 5]: > 40 µg/mL
% Growth inhibition ([3]; mean ± SD, n = 3): 34.1 ± 0.8%
MIC [4, 5]: 40 µg/mL (≈ 150 µM)
% Growth inhibition ([4]; mean ± SD, n = 3): 85.1 ± 0.8%

From patent US20250269039A1, “THERAPEUTIC-OLIGONUCLEOTIDES ACTIVATED BY NUCLEASES” (priority 2020, published 2025)
